According to patent publication US6677347B2, “Sulfonamido ether substituted imidazoquinolines” (3M Innovative Properties Company, priority 2000, dated 2004):

What was measured:
[1] = system: tumor necrosis factor (α); experiment: Cytokine Induction in Human Cells: tumor necrosis factor (α) by ELISA or IGEN assay; assay type: cell-based; conditions: human PBMC, 18 to 24 hours incubation, lowest concentration found to induce tumor necrosis factor
Source text: (§1) An in vitro human blood cell system is used to assess cytokine induction. Activity is based on the measurement of interferon and tumor necrosis factor (α) (IFN and TNF, respectively) secreted into culture media as described by Testerman et. al. In “Cytokine Induction by the Immunomodulators Imiquimod and S-27609”, Journal of Leukocyte Biology, 58, 365-372 (September, 1995).
(§2) Whole blood from healthy human donors is collected by venipuncture into EDTA vacutainer tubes. Peripheral blood mononuclear cells (PBMC) are separated from whole blood by density gradient centrifugation using Histopaque®-1077. Blood is diluted 1:1 with Dulbecco's Phosphate Buffered Saline (DPBS) or Hank's Balanced Salts Solution (HBSS). The PBMC layer is collected and washed twice with DPBS or HBSS and resuspended at 4×10^6 cells/mL in RPMI complete. The PBMC suspension is added to 48 well flat bottom sterile tissue culture plates (Costar, Cambridge, Mass. or Becton Dickinson Labware, Lincoln Park, N.J.) containing an equal volume of RPMI complete media containing test compound.
(§3) The compounds are solubilized in dimethyl sulfoxide (DMSO). The DMSO concentration should not exceed a final concentration of 1% for addition to the culture wells. The compounds are generally tested at concentrations ranging from 30-0.014 μM.
(§4) The solution of test compound is added at 60 μM to the first well containing RPMI complete and serial 3 fold dilutions are made in the wells. The PBMC suspension is then added to the wells in an equal volume, bringing the test compound concentrations to the desired range (30-0.014 μM). The final concentration of PBMC suspension is 2×10^6 cells/mL. The plates are covered with sterile plastic lids, mixed gently and then incubated for 18 to 24 hours at 37° C. in a 5% carbon dioxide atmosphere.
(§5) Following incubation the plates are centrifuged for 10 minutes at 1000 rpm (˜200×g) at 4° C. The cell-free culture supernatant is removed with a sterile polypropylene pipet and transferred to sterile polypropylene tubes. Samples are maintained at −30 to −70° C. until analysis. The samples are analyzed for interferon (α) by ELISA and for tumor necrosis factor (α) by ELISA or IGEN Assay
Tumor necrosis factor (α) (TNF) concentration is determined using ELISA kits available from Biosource International, Camarillo, Calif. Alternately, the TNF concentration can be determined by Origen® M-Series Immunoassay and read on an IGEN M-8 analyzer from IGEN International, Gaithersburg, Md. The immunoassay uses a human TNF capture and detection antibody pair from Biosource International, Camarillo, Calif. Results are expressed in pg/mL.
(§6) The table below lists the lowest concentration found to induce interferon and the lowest concentration found to induce tumor necrosis factor for each compound.

interferon (α) = experiment: Cytokine Induction in Human Cells: interferon (α) by ELISA; assay type: cell-based; conditions: human PBMC, 18 to 24 hours incubation, lowest concentration found to induce interferon
Source text: as §1, §2, §3, §4, §5
Interferon (α) concentration is determined by ELISA using a Human Multi-Species kit from PBL Biomedical Laboratories, New Brunswick, N.J. Results are expressed in pg/mL.
as §6

| Structure (SMILES) | melting point [°C] | minimal effective concentration [1] [µM] | minimal effective concentration (interferon (α)) [µM] |
| --- | --- | --- | --- |
| CCOCc1nc2c(N)nc3ccccc3c2n1CCOCCNS(C)(=O)=O [Example 57, N-(2-{2-[4-amino-2-(ethoxymethyl)-1H-imidazo[4,5-c]quinolin-1-yl]ethoxy}ethyl)methanesulfonamide] | 152 to 155 | – | – |
| COCCc1nc2c(N)nc3ccccc3c2n1CCOCCN(C)S(C)(=O)=O [Example 3, N-(2-{2-[4-amino-2-(2-methoxyethyl)-1H-imidazo[4,5-c]quinolin-1-yl]ethoxy}ethyl)-N-methylmethanesulfonamide] | 145 to 146.5 | 0.12 | 0.01 |
| Cc1nc2c(N)nc3ccccc3c2n1CCOCCN1CCCS1(=O)=O [Example 60, 1-{2-[2-(1,1-Dioxidoisothiazolidin-2-yl)ethoxy]ethyl}-2-methyl-1H-imidazo[4,5-c]quinolin-4-amine] | 186 to 187 | – | – |
| COCCc1nc2c(N)nc3c(c2n1CCOCCNS(C)(=O)=O)CCCC3 [Example 2, N-(2-{2-[4-amino-2-(2-methoxyethyl)-6,7,8,9-tetrahydro-1H-imidazo[4,5-c]quinolin-1-yl]ethoxy}ethyl)methanesulfonamide] | 151 to 153 | – | – |
| Cc1nc2c(N)nc3ccccc3c2n1CCOCCN [Example 51, 1-[2-(2-aminoethoxy)ethyl]-2-methyl-1H-imidazo[4,5-c]quinolin-4-amine] | 155 to 157 | – | – |
| COCCc1nc2c(N)nc3ccccc3c2n1CCOCCN(C)S(=O)(=O)C(C)C [Example 59, N-(2-{2-[4-amino-2-(2-methoxyethyl)-1H-imidazo[4,5-c]quinolin-1-yl]ethoxy}ethyl)-N-methylpropane-2-sulfonamide] | 129.7 to 130.2 | – | – |
| Cc1nc2c(N)nc3ccccc3c2n1CCOCCNS(C)(=O)=O [Example 54, N-{2-[2-(4-amino-2-methyl-1H-imidazo[4,5-c]quinolin-1-yl)ethoxy]ethyl}methanesulfonamide] | 152 to 155 | – | – |
| COCCc1nc2c(N)nc3ccccc3c2n1CCOCCNS(C)(=O)=O [Example 1, N-(2-{2-[4-amino-2-(2-methoxyethyl)-1H-imidazo[4,5-c]quinolin-1-yl]ethoxy}ethyl)methanesulfonamide] | 114 to 117 | – | – |
| CCc1nc2c(N)nc3ccccc3c2n1CCOCCN [Example 52, 1-[2-(2-aminoethoxy)ethyl]-2-ethyl-1H-imidazo[4,5-c]quinolin-4-amine] | 144 to 146 | – | – |
| CCOCc1nc2c(N)nc3ccccc3c2n1CCOCCNS(=O)(=O)C(C)C [Example 58, N-(2-{2-[4-amino-2-(ethoxymethyl)-1H-imidazo[4,5-c]quinolin-1-yl]ethoxy}ethyl)propane-2-sulfonamide] | 139 to 142 | – | – |
| COCCc1nc2c(N)nc3c(c2n1CCOCCN(C)S(C)(=O)=O)CCCC3 [Example 4, N-(2-{2-[4-amino-2-(2-methoxyethyl)-6,7,8,9-tetrahydro-1H-imidazo[4,5-c]quinolin-1-yl]ethoxy}ethyl)-N-methylmethanesulfonamide] | 115.3 to 117.8 | – | – |
| CCCCc1nc2c(N)nc3ccccc3c2n1CCOCCN1CCCS1(=O)=O [Example 5, 2-Butyl-1-{2-[2-(1,1-dioxidoisothiazolidin-2-yl)ethoxy]ethyl}-1H-imidazo[4,5-c]quinolin-4-amine] | 152 to 154 | – | – |
| CCc1nc2c(N)nc3ccccc3c2n1CCOCCNS(C)(=O)=O [Example 56, N-{2-[2-(4-amino-2-ethyl-1H-imidazo[4,5-c]quinolin-1-yl)ethoxy]ethyl}methanesulfonamide] | 169 to 171 | – | – |
| Cc1nc2c(N)nc3ccccc3c2n1CCOCCNS(=O)(=O)C(C)C [Example 55, N-{2-[2-(4-amino-2-methyl-1H-imidazo[4,5-c]quinolin-1-yl)ethoxy]ethyl}propane-2-sulfonamide] | 172 to 175 | – | – |
| CCC(COCCC1CCN(S(=O)(=O)c2cccs2)CC1)n1cnc2c(N)nc3ccccc3c21 (stereo not drawn) [Example 31] | – | 10 | 1 |
